From US20140220135A1, “PERMEATION ENHANCED ACTIVE-CARRYING NANOPARTICLES” (Midatech Limited, priority 2013, published 2014)
“Also recorded” adds a separate entry of the source.

Experiments:
[1] = Glucose clearance in somatostatin-infused minipigs after glucose bolus; format: in vivo; conditions: transbuccal strips of NP-insulin, μg DoD/strip, period of 40 to 60 minutes, FIG. 8
Description: Minipigs were infused with somatostatin in order to suppress endogenous insulin secretion. They were then given a bolus injection of 0.33 gm/kg glucose. After thirty minutes the test item was given and the first order rate constant for glucose clearance (k) was calculated for the period of 40 to 60 minutes.
Test items included: 1. Strips containing 4 U insulin on nanoparticle applied transbuccal; 2. Strips containing 4 U insulin on nanoparticle dodecyl-β-D-maltoside applied transbuccal; 3. Subcutaneous (s.c.) nanoparticle-insulin (NP-insulin); 4. S.C. commercial Humalog® insulin.

[2] = test system: insulin-carrying gold nanoparticles ("GNPI"); assay: Insulin release from insulin-carrying gold nanoparticles incubated with permeation enhancer, BCA protein assay of supernatant; format: physicochemical
Description: […] Samples were mixed and left at RT for 1 h, they were then spun for 2 min at 18000 g and 10 μl of each supernatant was measured by BCA protein assay to determine insulin release, a blank and a positive control in which no TDM was added and the sample was not spun were also included.
The sample tubes were vortexed and left at RT for a further 95 h (for a total of 96 hours) and re-assayed as above to see if there was any further indication of insulin release.
In a follow on experiment lysalbinic acid (LAA) was also tested as an alternative potential permeation enhancer, the same protocol was used as for TDM above.

| SMILES | first order rate constant for glucose clearance (k) against dosage of DoD [1] | insulin release by TDM over 0 TDM control ([2]; 1 h at RT in water, 2.5-67.5 μg TDM in 0.5 ml, FIG. 2) | further insulin release after a total of 96 hours ([2]; 96 h at RT in water, FIG. 3) | loss of bound active from active-carrying nanoparticle ([2]; 96 hours of incubation in solution) | percentage of insulin released against percentage of permeation enhancer ([2]; insulin level of 75 U/ml, FIG. 5 and FIG. 6) | effect on insulin release from GNPI (overall conclusion) ([2]; range of concentrations, in water, short or medium term) |
| --- | --- | --- | --- | --- | --- | --- |
| CCCCCCCCCCCCO[C@@H]1O[C@H](CO)[C@@H](O[C@H]2O[C@H](CO)[C@@H](O)[C@H](O)[C@H]2O)[C@H](O)[C@H]1O [DoD, dodecyl-β-D-maltoside] | apparent dose-dependence; also recorded: clear dose-dependence |  |  |  |  |  |
| CCCCCCCCCCCCCCO[C@@H]1O[C@H](CO)[C@@H](O[C@H]2O[C@H](CO)[C@@H](O)[C@H](O)[C@H]2O)[C@H](O)[C@H]1O [TDM, tetradecyl-D-maltoside] |  | less than 5% | no further release | without significant loss of bound active | lack of effect | no gross effect |
